Assay: molar heat capacity at constant pressure
Conditions: 101.33 kPa, Crystal 3, relaxation calorimetry

[O-2].[O-2].[Ti+4] [titanium(IV) oxide]
Conditions	molar heat capacity at constant pressure [J/K/mol]
0.5 K	0.000432
1 K	0.00103
1.5 K	0.00196
2 K	0.00337
2.01 K	0.00218
2.35 K	0.00327
2.47 K	0.00544
2.5 K	0.00541
2.88 K	0.00862
3 K	0.00821
3.5 K	0.0119
3.72 K	0.01489
4 K	0.0165
4.31 K	0.02048
4.5 K	0.0221
4.54 K	0.02277
4.77 K	0.02538
5 K	0.0288
5.03 K	0.02844
5.32 K	0.03402
5.5 K	0.0365
5.56 K	0.03861
5.85 K	0.04314
6 K	0.0454
6.14 K	0.04818
6.46 K	0.05442
6.5 K	0.0553
6.84 K	0.06161
7 K	0.0662
7.16 K	0.06852
7.5 K	0.0782
7.53 K	0.07958
7.93 K	0.08951
8 K	0.0911
8.34 K	0.1005
8.5 K	0.105
8.78 K	0.1124
9 K	0.12
9.23 K	0.1263
9.5 K	0.135
9.74 K	0.1441
10 K	0.152
10.23 K	0.1603
10.79 K	0.1786
11 K	0.187
11.34 K	0.2003
11.93 K	0.2256
12 K	0.227
12.55 K	0.2505
13 K	0.271
13.2 K	0.2793
13.91 K	0.3136
14 K	0.318
14.6 K	0.3493
15 K	0.37
15.37 K	0.3923
16 K	0.428
16.16 K	0.4371
16.99 K	0.4905
17 K	0.491
17.87 K	0.5493
18 K	0.559
18.78 K	0.6158
19 K	0.634
19.77 K	0.6928
20 K	0.714
20.78 K	0.7811
21.84 K	0.8773
23.01 K	0.9887
24.2 K	1.12
25 K	1.21
25.43 K	1.26
26.78 K	1.42
28.14 K	1.6
29.6 K	1.8
30 K	1.85
31.12 K	2.01
32.74 K	2.25
34.45 K	2.52
35 K	2.62
36.24 K	2.82
38.12 K	3.16
40 K	3.52
40.1 K	3.54
42.19 K	3.95
44.41 K	4.41
45 K	4.54
46.71 K	4.93
49.16 K	5.48
50 K	5.66
51.71 K	6.07
54.41 K	6.71
55 K	6.87
57.24 K	7.42
60 K	8.12
60.22 K	8.18
63.37 K	8.97
65 K	9.38
66.7 K	9.78
70 K	10.75
70.19 K	10.75
73.8 K	11.78
75 K	12.2
77.13 K	12.82
80 K	13.67
81.7 K	13.98
85 K	15.16
85.33 K	15.22
89.74 K	16.6
90 K	16.65
94.38 K	17.97
95 K	18.14
99.29 K	19.28
100 K	19.6
104.43 K	20.84
109.84 K	22.53
110 K	22.48
115.54 K	24.21
120 K	25.26
121.46 K	25.88
128.44 K	27.05
130 K	27.96
134.65 K	29.35
140 K	30.55
141.61 K	31.35
148.86 K	33.43
150 K	33.04
156.57 K	35.12
160 K	35.43
165.09 K	36.06
170 K	37.72
173.67 K	37.71
180 K	39.89
182.65 K	39.71
190 K	41.95
192.19 K	41.35
200 K	43.91
201.69 K	44.69
210 K	45.75
212.16 K	46.49
220 K	47.49
223.15 K	48.5
230 K	49.13
234.7 K	50.34
240 K	50.66
246.88 K	52.02
250 K	52.11
259.67 K	53.63
260 K	53.46
270 K	54.73
273.07 K	55.28
273.15 K	55.11
280 K	55.92
287.77 K	56.22
290 K	57.04
298.15 K	57.89
300 K	58.08
302.73 K	58.1
305 K	58.58

Source: the NIST ThermoML archive (doi:10.1016/j.jct.2015.09.018)
